According to the Kinase Knowledgebase extract (Sharma et al. 2016):

Legend:
[1] = molecular target: MAPK14 (human), Q16539 [p38(M109A) Mutant Enzyme Inhibition Assay]; test: p38(M109A) Mutant Enzyme Inhibition Assay
[2] = molecular target: MAPK14 (human), Q16539 [p38(A157V) Mutant Enzyme Inhibition Assay]; test: p38(A157V) Mutant Enzyme Inhibition Assay
MAPK14 (human) = MAPK14 (human) (UniProt Q16539); test: p38 Enzyme Inhibition Assay
MAPK14 (human), sequence (Q16539 whole entry, looked up): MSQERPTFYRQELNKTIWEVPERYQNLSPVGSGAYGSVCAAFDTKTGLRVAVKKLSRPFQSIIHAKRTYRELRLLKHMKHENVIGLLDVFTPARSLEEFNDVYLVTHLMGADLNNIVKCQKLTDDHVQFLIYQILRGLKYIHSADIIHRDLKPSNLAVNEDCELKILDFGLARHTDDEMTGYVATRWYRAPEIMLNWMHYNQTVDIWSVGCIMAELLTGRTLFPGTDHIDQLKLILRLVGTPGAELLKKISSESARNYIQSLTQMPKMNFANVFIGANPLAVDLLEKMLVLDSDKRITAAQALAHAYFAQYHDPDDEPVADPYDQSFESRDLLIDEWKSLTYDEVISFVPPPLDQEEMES

MAPK14 (human), Q16539 [p38(M109A) Mutant Enzyme Inhibition Assay], sequence (Q16539 whole entry, looked up, stated change not applied): as the sequence (Q16539 whole entry, looked up) above
MAPK14 (human), Q16539 [p38(A157V) Mutant Enzyme Inhibition Assay], sequence (Q16539 whole entry, looked up, stated change not applied): as the sequence (Q16539 whole entry, looked up) above

IC50 [1] | IC50 [2] | IC50 (MAPK14 (human)) | Structure (SMILES)
7.5 nM | 58 nM | 4 nM | C[S+]([O-])c1ccc(-c2cc(-c3ccc(F)cc3)c(-c3ccncc3)[nH]2)cc1 (configuration not stated)
37 nM | 450 nM | 12 nM | C[S+]([O-])c1ccc(-c2cc(-c3ccc(F)c(F)c3)c(-c3ccncc3)[nH]2)cc1 (configuration not stated)
46 nM | < 0.5 nM | 7 nM | Cn1c(C2CCNCC2)nc(-c2cccc(C(F)(F)F)c2)c1-c1ccncc1
712 nM | 13 nM | 94 nM | C[C@H](Nc1cc(-c2nc(C3CCCNC3)n(C)c2-c2cccc(C(F)(F)F)c2)ccn1)c1ccccc1 (some centres not stated)
